Biological target: T1, USP19 (Homo sapiens, UniProt O94966)
T1 sequence (O94966 1-1318): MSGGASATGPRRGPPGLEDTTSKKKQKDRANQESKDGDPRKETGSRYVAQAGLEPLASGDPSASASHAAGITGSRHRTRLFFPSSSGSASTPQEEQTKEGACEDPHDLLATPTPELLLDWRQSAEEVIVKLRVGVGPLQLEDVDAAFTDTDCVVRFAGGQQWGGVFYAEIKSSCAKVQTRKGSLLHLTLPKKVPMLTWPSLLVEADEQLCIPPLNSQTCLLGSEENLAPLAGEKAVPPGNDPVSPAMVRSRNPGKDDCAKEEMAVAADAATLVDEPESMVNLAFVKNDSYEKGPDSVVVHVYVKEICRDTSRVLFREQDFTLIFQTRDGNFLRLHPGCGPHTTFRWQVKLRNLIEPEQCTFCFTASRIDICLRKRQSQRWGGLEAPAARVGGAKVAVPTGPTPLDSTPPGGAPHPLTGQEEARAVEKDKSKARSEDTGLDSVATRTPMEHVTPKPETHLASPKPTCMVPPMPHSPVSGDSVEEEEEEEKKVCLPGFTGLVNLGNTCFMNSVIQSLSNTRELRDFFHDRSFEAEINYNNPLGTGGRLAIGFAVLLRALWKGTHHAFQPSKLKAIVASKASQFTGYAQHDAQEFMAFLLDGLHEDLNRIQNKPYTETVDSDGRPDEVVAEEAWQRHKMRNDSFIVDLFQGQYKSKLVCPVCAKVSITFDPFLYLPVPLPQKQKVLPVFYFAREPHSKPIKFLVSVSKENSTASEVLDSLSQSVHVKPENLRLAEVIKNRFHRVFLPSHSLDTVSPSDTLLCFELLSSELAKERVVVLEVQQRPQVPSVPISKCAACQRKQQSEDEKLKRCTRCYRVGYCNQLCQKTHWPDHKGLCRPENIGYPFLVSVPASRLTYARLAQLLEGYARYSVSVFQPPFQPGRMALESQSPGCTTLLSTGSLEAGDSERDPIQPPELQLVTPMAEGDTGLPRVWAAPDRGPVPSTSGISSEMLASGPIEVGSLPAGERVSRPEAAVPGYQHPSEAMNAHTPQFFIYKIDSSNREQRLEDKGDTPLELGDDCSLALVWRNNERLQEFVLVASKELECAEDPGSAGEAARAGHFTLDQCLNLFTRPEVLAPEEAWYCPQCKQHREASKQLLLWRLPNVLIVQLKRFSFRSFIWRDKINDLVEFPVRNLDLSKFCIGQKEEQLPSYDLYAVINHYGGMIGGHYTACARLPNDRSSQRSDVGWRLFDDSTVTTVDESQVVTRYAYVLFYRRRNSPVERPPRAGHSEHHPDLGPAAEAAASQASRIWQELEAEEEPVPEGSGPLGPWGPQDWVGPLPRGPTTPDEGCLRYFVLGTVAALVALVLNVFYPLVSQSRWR
Assay: Cell target engagement, neuroblastoma cell line
Type: cell-based
Procedure: Cells from a breast cancer cell line, a neuroblastoma cell line and a mouse skeletal muscle cell line were treated with a USP19 inhibitor compound (ADC-141, corresponding to Example 212 provided herein) for 2 hrs, lysed (lysis buffer: 50 mM Tris pH 7.4; 150 mM NaCl; 5 mM MgCl2; 0.5 mM EDTA; 0.5% NP40; 10% Glycerol; 2 mM DTT) and Ubiquitin-propargylamine (Ub-PA; UbiQ) or Ubiquitin-vinyl methyl ester (Ub-VME; Almac Sciences Scotland Limited) was then added. Samples were analysed by western blotting probing for USP19 (EC50 determined by densitometry).

C[C@H](CC1CCCCC1)C(=O)N1CC[C@@](O)(Cn2cc(C(=O)N3CCNCC3)c(-c3ccccc3)cc2=O)C2(CCCC2)C1 [ADC-141, 1-(((S)-7-((R)-3-Cyclohexyl-2-methylpropanoyl)-10-hydroxy-7-azaspiro[4.5]decan-10-yl)methyl)-4-phenyl-5-(piperazine-1-carbonyl)pyridin-2(1H)-one]
cell permeability: good cell permeability
EC50 (USP19 target engagement, densitometry) (2 hrs treatment, Ub-PA or Ub-VME probe, western blot): low nanomolar

Reference: patent US20220016115A1, “USP19 INHIBITORS FOR USE IN THERAPY” (ALMAC DISCOVERY LIMITED, priority 2018, published 2022)
